The assay deals with phospho-histone H3. The assay can be described thus: Immunoblotting of phospho-histone H3 in prostate cells. The format is cell-based. Particulars: single agent treatment. As for the experimental part: Prostate cancer cell lines (DU-145, LNCaP, PC3) were obtained from ATCC. Cells were grown in RPMI-1640 (Invitrogen) with 10% Fetal Bovine Serum (FBS) (Gemini) and maintained in a […] humidified incubator supplemented with 5% CO2. Sodium salt of VPA (Sigma-Aldrich) was prepared in RPMI at a 1M stock on the day of treatment of the cells. Vorinostat (SAHA) (AtonPharma) and AMG 900 (Amgen) were maintained in 10 mM DMSO stock solutions at −20° C. and diluted in RPMI upon use. For combination studies, compounds were administered concomitantly.
Western blotting was performed as described previously. Kachhap S K, Rosmus N, et al. “Downregulation of homologous recombination repair genes by HDAC inhibition in prostate cancer is mediated through the E2F1 transcription factor”, PLoS One 2010;5:e11208. Loading volumes equalized to 20 μg of total protein were used. Primary antibodies were diluted 1:1000 in blocking solution with the exceptions of vinculin and phosphorylated aurora A-C, which were diluted 1:4000 and 1:500, respectively. Conjugated secondary antibodies were diluted 1:4000 in blocking solution. For blocking solution 5% milk in TBST (100 mM Tris-HCl ph 7.4, 0.1% Tween20, 150 mM NaCl in H2O) was used for p21, cyclin B1, vinculin, cleaved PARP and all secondary antibodies; 5% BSA in TBST was used for the primary antibodies phosphorylated aurora, and phosphorylated and total H3. Blots were developed on film and scanned into a computer at 300 dots per inch (dpi). Densitometric analyses were performed using ImageJ (Research Services Branch, National Institute of Mental Health).
In general terms: Immunoblotting shows a protein as a band on a membrane.
Consider `Cc1csc(-c2nnc(Nc3ccc(Oc4ncccc4-c4ccnc(N)n4)cc3)c3ccccc23)c1` [AMG 900, N-(4-((3-(2-amino-4-pyrimidinyl)-2-pyridinyl)oxy)phenyl)-4-(4-methyl-2-thienyl)-1-phthalazinamine], for which the “expression of phospho-histone H3 (pH3)” value is listed as “decreased”. Turning to `CCCC(CCC)C(=O)O` [valproic acid], the “expression of phospho-histone H3 (pH3)” value was “decreased”. As for `O=C(CCCCCCC(=O)Nc1ccccc1)NO` [vorinostat], the “expression of phospho-histone H3 (pH3)” value was “decreased”.

These data come from patent publication US20150072988A1, “USE OF N-(4-((3-(2-AMINO-4-PYRIMIDINYL)-2-PYRIDINYL)OXY)PHENYL)-4-(4-METHYL-2-THIENYL)-1-PHTHALAZINAMINE IN COMBINATION WITH HISTONE DEACETYLASE INHIBITORS FOR TREATMENT OF CANCER” (THE JOHNS HOPKINS UNIVERSITY, priority 2012, published 2015).
